{
  "source": "patent US11135236B2",
  "about": "“Retinoic acid receptor gamma agonists to attenuate anthracycline-induced cardiotoxicity” (Northwestern University, priority 2018, dated 2021)",
  "key": {"RARG-WT hiPSC-CMs [1]": {"tested_on": "RARG-WT hiPSC-CMs", "conditions": "doxorubicin LD50, agonist 0 μM, 72 h", "quoted_text": "(§1) 384-well plate-based cell viability, caspase 3/7 activity, and reactive oxygen species (ROS) assays. […] Luminescence was measured using a VarioSkan Lux Multi-Mode Reader (Thermo Scientific) with an integration time of 0.25 sec. 10 μM staurosporine (MedChemExpress) was used as a positive control. […] 10 μM staurosporine and 50 μM menadione (both MedChemExpress) was used as a positive control, respectively. Data were analyzed using Prism 7.0 software (GraphPad) using standard dose-response guidelines."}, "RARG-OE hiPSC-CMs [2]": {"tested_on": "RARG-OE hiPSC-CMs", "assay": "hiPSC-CM cell viability after 72 h doxorubicin (CellTiter-Glo)", "type": "cell-based, human", "quoted_text": "as §1"}, "RARG-WT hiPSC-CMs [3]": {"tested_on": "RARG-WT hiPSC-CMs", "assay": "hiPSC-CM cell viability after 72 h doxorubicin (CellTiter-Glo)", "type": "cell-based, human", "quoted_text": "as §1"}, "C57BL/6J Mice": {"tested_on": "C57BL/6J Mice", "assay": "mouse model of doxorubicin-induced cardiomyopathy, echocardiography", "type": "in vivo", "conditions": "doxorubicin 3 mg kg^−1 intraperitoneal twice weekly for 3 weeks", "from_the_text": "Mouse model of doxorubicin-induced cardiomyopathy and drug administration. […] For the control group, we treated mice with corn oil in the same schedule as agonist administration. We recorded an echocardiogram once a week (day 0, day 7, day 14, and day 21) and terminated the experiment at day 21. Hearts were harvested for western blot analyses as mentioned above.\nEchocardiographic evaluation. Mice were studied at baseline and weekly during the protocol under light anesthesia with isoflurane (induction 3%, maintenance 1.5%). 2D images in the parastemal short axis were obtained with a GE Vivid 7 ultrasound system (GE Healthcare) equipped with a 13 MHz transducer. Left ventricular end-systolic (LVESD) and end-diastolic (LVEDD) dimensions were measured and left ventricular fractional shortening (FS) was calculated."}, "control hiPSC-CMs [4]": {"tested_on": "control hiPSC-CMs", "assay": "hiPSC-CM cell viability after 72 h doxorubicin (CellTiter-Glo)", "type": "cell-based, human", "quoted_text": "as §1"}, "MDA-MB-231": {"tested_on": "MDA-MB-231", "assay": "breast cancer cell viability after 72 h of doxorubicin and RARG agonists co-treatment", "conditions": "MDA-MB-231, doxorubicin 72 h, Vehicle (no agonist)", "quoted_text": "as §1\n(§2) Breast cancer cell lines. Four human breast cancer cell lines were used, MCF7 (adenocarcinoma, ATCC HTB-22) and Hs 578T (carcinsarcoma, ATCC HTB-126) both cultured in RPMI 1640 (Corning) with 10% FBS (Opti-Gold, GenDEPOT), MDA-MB-231 (adenocarcinoma, ATCC HTB-26) and MDA-MB-468 (adenocarcinoma, ATCC HTB-131) both cultured in DMEM (Corning) with 10% FBS. All cells were cultured on uncoated tissue culture plates (Greiner) and passaged with TrypLE Express (Gibco)."}, "control hiPSC-CMs [5]": {"tested_on": "control hiPSC-CMs", "assay": "caspase 3 and 7 activity after 24 h doxorubicin (Caspase 3/7-Glo)", "type": "cell-based, human"}, "hiPSC-CMs": {"tested_on": "hiPSC-CMs", "assay": "DNA damage by γH2AX staining", "type": "cell-based, human", "conditions": "patient hiPSC-CMs, 24 h doxorubicin", "experimental": "Immunofluorescent staining. hiPSCs were dissociated with 0.5 mM EDTA and plated onto Matrigel-coated Nunc Lab-Tek II 8-chamber slides in E8 medium for three days (E8Y for the first 24 h). Cells were fixed, permeabilized, and stained for POU5F1, SSEA4, SOX2, TRA-1-60 with the PSC 4-Marker Immunocytochemistry Kit (Invitrogen) according to manufacturer's instructions. Cardiomyocytes were dissociated with Liberase TH (as above) and plated onto Matrigel-coated No 1.5 coverslips as previously described and allowed to adhere and spread for 4 days. Cells were fixed with 4% paraformaldehyde (Electron Microscopy Services) in DPBS for 15 min at RT, permeabilized with 1% saponin (MilliporeSigma) in DPBS for 15 min at RT, blocked with 3% bovine serum albumin (BSA, MilliporeSigma) in DPBS for 30 min at RT, and stained overnight in 3% BSA/DPBS at 4° C. with 1:200 polyclonal rabbit IgG anti-TNNT2 (Abcam, ab45932), 1:500 monoclonal mouse IgG1 anti-ACTN2 (Sigma, A7811), 1:200 monoclonal rabbit IgG RARG (Abcam, ab187159), or 1:200 monoclonal mouse IgG1 γH2AX (MilliporeSigma, 05-636). […]\nFlow cytometry-based DNA damage assay. […] Cells were analyzed using a CytoFLEX (Beckman Coulter) with CytExpert 2.0 software and Prism 7.0 software (GraphPad)."}, "RARG-KO hiPSC-CMs [6]": {"tested_on": "RARG-KO hiPSC-CMs", "assay": "caspase 3 and 7 activity after 24 h doxorubicin (Caspase 3/7-Glo)", "type": "cell-based, human", "quoted_text": "as §1"}, "RARG-WT hiPSC-CMs [7]": {"tested_on": "RARG-WT hiPSC-CMs", "assay": "caspase 3 and 7 activity after 24 h doxorubicin (Caspase 3/7-Glo)", "type": "cell-based, human", "quoted_text": "as §1"}, "MCF7": {"tested_on": "MCF7", "assay": "breast cancer cell viability after 72 h of doxorubicin and RARG agonists co-treatment", "type": "cell-based, human", "conditions": "MCF7, doxorubicin 72 h, Vehicle (no agonist)", "quoted_text": "as §1, §2"}, "RARG-OE hiPSC-CMs [8]": {"tested_on": "RARG-OE hiPSC-CMs", "assay": "caspase 3 and 7 activity after 24 h doxorubicin (Caspase 3/7-Glo)", "type": "cell-based, human", "quoted_text": "as §1"}, "RARG-KO hiPSC-CMs [9]": {"tested_on": "RARG-KO hiPSC-CMs", "assay": "hiPSC-CM cell viability after 72 h doxorubicin (CellTiter-Glo)", "type": "cell-based, human", "quoted_text": "as §1"}, "MDA-MB-468": {"tested_on": "MDA-MB-468", "assay": "breast cancer cell viability after 72 h of doxorubicin and RARG agonists co-treatment", "conditions": "MDA-MB-468, doxorubicin 72 h, Vehicle (no agonist)", "quoted_text": "as §1, §2"}},
  "data": [
    {"smiles": "COc1cccc2c1C(=O)c1c(O)c3c(c(O)c1C2=O)C[C@@](O)(C(=O)CO)C[C@@H]3O[C@H]1C[C@H](N)[C@H](O)[C@H](C)O1", "note": "[doxorubicin]", "values": [
      {"measurement": "RARG-WT: LD50", "setting": "RARG-WT hiPSC-CMs [1]", "result": 0.469, "unit": "µM"},
      {"measurement": "LD50, cell viability", "setting": "RARG-OE hiPSC-CMs [2]", "result": 2.724, "unit": "µM"},
      {"measurement": "LD50, cell viability", "setting": "RARG-WT hiPSC-CMs [3]", "result": 2.061, "unit": "µM"},
      {"measurement": "cardiac function, as assessed by fractional shortening", "setting": "C57BL/6J Mice", "result": "steady decline in cardiac function"},
      {"measurement": "half-maximal lethal dose (LD50), cell viability", "setting": "control hiPSC-CMs [4]", "result": 2.622, "unit": "µM"},
      {"measurement": "LD50", "setting": "MDA-MB-231", "result": 1.301, "unit": "µM"},
      {"measurement": "LD50, caspase 3 and 7 activity", "setting": "control hiPSC-CMs [5]", "result": 2.078, "unit": "µM"},
      {"measurement": "DNA damage (γH2AX)", "setting": "hiPSC-CMs", "result": "concentration-dependent increase in DNA damage"},
      {"measurement": "LD50, caspase 3 and 7 activity", "setting": "RARG-KO hiPSC-CMs [6]", "result": 0.314, "unit": "µM"},
      {"measurement": "LD50, caspase 3 and 7 activity", "setting": "RARG-WT hiPSC-CMs [7]", "result": 0.683, "unit": "µM"},
      {"measurement": "LD50", "setting": "MCF7", "result": 0.490, "unit": "µM"},
      {"measurement": "LD50, caspase 3 and 7 activity", "setting": "RARG-OE hiPSC-CMs [8]", "result": 1.83, "unit": "µM"},
      {"measurement": "LD50, cell viability", "setting": "RARG-KO hiPSC-CMs [9]", "result": 1.582, "unit": "µM"},
      {"measurement": "LD50", "setting": "MDA-MB-468", "result": 1.330, "unit": "µM"}
    ]}
  ]
}
